Test results from PubChem BioAssay (NCI).
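Grown in 96-well plates, cells were treated for 48 hours with each compound at five concentrations. Insufficient inhibition: endpoint recorded as highest concentration tested. TGI is the concentration that stops growth completely.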

What was measured:
Test in all cases: growth of human tumour cells (NCI), 48 h
[1] = test system: 786-0 renal
[2] = test system: A549 NSCLC
[3] = test system: ACHN renal
[4] = test system: BT-549 breast
[5] = test system: CAKI-1 renal
[6] = test system: CCRF-CEM leukemia
[7] = test system: COLO 205 colon
[8] = test system: DU-145 prostate
[9] = test system: EKVX NSCLC
[10] = test system: HCC-2998 colon
[11] = test system: HCT-116 colon
[12] = test system: HCT-15 colon
[13] = test system: HL-60(TB) leukemia
[14] = test system: HOP-92 NSCLC
[15] = test system: HS 578T breast
[16] = test system: HT29 colon
[17] = test system: IGROV1 ovarian
[18] = test system: K-562 leukemia
[19] = test system: KM12 colon
[20] = test system: LOX IMVI melanoma
[21] = test system: M14 melanoma
[22] = test system: MALME-3M melanoma
[23] = test system: MCF7 breast
[24] = test system: MDA-MB-231 breast
[25] = test system: MDA-MB-435
[26] = test system: MDA-N
[27] = test system: MOLT-4 leukemia
[28] = test system: NCI-H226 lung
[29] = test system: NCI-H23 lung
[30] = test system: NCI-H460 lung
[31] = test system: NCI-H522 lung
[32] = test system: NCI/ADR-RES ovarian
[33] = test system: OVCAR-3 ovarian
[34] = test system: OVCAR-4 ovarian
[35] = test system: OVCAR-5 ovarian
[36] = test system: OVCAR-8 ovarian
[37] = test system: PC-3 prostate
[38] = test system: RPMI-8226 leukemia
[39] = test system: RXF 393 renal
[40] = test system: SF-268 CNS
[41] = test system: SF-295 CNS
[42] = test system: SK-MEL-2 melanoma
[43] = test system: SK-MEL-28 melanoma
[44] = test system: SK-MEL-5 melanoma
[45] = test system: SK-OV-3 ovarian
[46] = test system: SNB-19 CNS
[47] = test system: SNB-75 CNS
[48] = test system: SR leukemia
[49] = test system: SW-620 colon
[50] = test system: T-47D breast
[51] = test system: TK-10 renal
[52] = test system: UACC-257 melanoma
[53] = test system: UACC-62 melanoma
[54] = test system: UO-31 renal
[55] = test system: HOP-62 NSCLC
[56] = test system: SF-539 CNS
[57] = test system: SN12C renal
[58] = test system: U251 CNS

Work on `COC(=O)C(C)(Cc1ccc2c(c1)nnn2C(C)=O)NC(C)=O` (stereo not drawn) yielded a TGI [1] greater than 100 µM, a TGI [2] greater than 100 µM and a TGI [3] greater than 100 µM. For the same compound, the TGI [4] was greater than 100 µM, the TGI [5] was greater than 100 µM and the TGI [6] was greater than 100 µM. The TGI [7] was greater than 100 µM, the TGI [8] was greater than 100 µM and the TGI [9] was greater than 100 µM. For the same compound, the TGI [10] was greater than 100 µM, the TGI [11] was greater than 100 µM and the TGI [12] was greater than 100 µM. The TGI [13] was greater than 100 µM, the TGI [14] was greater than 100 µM and the TGI [15] was greater than 100 µM. The TGI [16] was greater than 100 µM, the TGI [17] was greater than 100 µM and the TGI [18] was greater than 100 µM. The TGI [19] was greater than 100 µM, the TGI [20] was greater than 100 µM and the TGI [21] was greater than 100 µM. It also gave a TGI [22] greater than 100 µM, a TGI [23] greater than 100 µM and a TGI [24] greater than 100 µM. For the same compound, the TGI [25] was greater than 100 µM, the TGI [26] was greater than 100 µM and the TGI [27] was greater than 100 µM. The TGI [28] was greater than 100 µM, the TGI [29] was greater than 100 µM and the TGI [30] was greater than 100 µM. It also gave a TGI [31] greater than 100 µM, a TGI [32] greater than 100 µM and a TGI [33] greater than 100 µM. The TGI [34] was greater than 100 µM, the TGI [35] was greater than 100 µM and the TGI [36] was greater than 100 µM. For the same compound, the TGI [37] was greater than 100 µM, the TGI [38] was greater than 100 µM and the TGI [39] was greater than 100 µM. It also gave a TGI [40] greater than 100 µM, a TGI [41] greater than 100 µM and a TGI [42] greater than 100 µM. It also gave a TGI [43] greater than 100 µM, a TGI [44] greater than 100 µM and a TGI [45] greater than 100 µM. The TGI [46] was greater than 100 µM, the TGI [47] was greater than 100 µM and the TGI [48] was greater than 100 µM. The TGI [49] was greater than 100 µM, the TGI [50] was greater than 100 µM and the TGI [51] was greater than 100 µM. It also gave a TGI [52] greater than 100 µM, a TGI [53] greater than 100 µM and a TGI [54] greater than 100 µM.

`CC(=O)OCC1OC(NC(=S)CCSc2nc3ccccc3c(=O)n2-c2ccccc2)C(OC(C)=O)C(OC(C)=O)C1OC(C)=O` (stereo not drawn) gave a TGI [1] greater than 100 µM, a TGI [2] greater than 100 µM and a TGI [3] greater than 100 µM. The TGI [4] was greater than 100 µM, the TGI [5] was greater than 100 µM and the TGI [6] was greater than 100 µM. For the same compound, the TGI [7] was greater than 100 µM, the TGI [8] was greater than 100 µM and the TGI [9] was greater than 100 µM. The TGI [10] was greater than 100 µM, the TGI [11] was greater than 100 µM and the TGI [12] was greater than 100 µM. For the same compound, the TGI [13] was 88.1 µM, the TGI [55] was greater than 100 µM and the TGI [14] was 98.1 µM. It also gave a TGI [15] greater than 100 µM, a TGI [16] greater than 100 µM and a TGI [17] of 25.1 µM. The TGI [18] was greater than 100 µM, the TGI [19] was greater than 100 µM and the TGI [20] was greater than 100 µM. The TGI [21] was greater than 100 µM, the TGI [22] was greater than 100 µM and the TGI [23] was greater than 100 µM. It also gave a TGI [24] greater than 100 µM, a TGI [25] greater than 100 µM and a TGI [26] greater than 100 µM. The TGI [27] was greater than 100 µM, the TGI [28] was greater than 100 µM and the TGI [29] was greater than 100 µM. It also gave a TGI [30] greater than 100 µM, a TGI [31] greater than 100 µM and a TGI [32] greater than 100 µM. The TGI [33] was greater than 100 µM, the TGI [35] was greater than 100 µM and the TGI [36] was greater than 100 µM. For the same compound, the TGI [37] was greater than 100 µM, the TGI [38] was greater than 100 µM and the TGI [39] was 58.2 µM. It also gave a TGI [40] greater than 100 µM, a TGI [41] greater than 100 µM and a TGI [56] of 34 µM. It also gave a TGI [42] of 76.3 µM, a TGI [43] greater than 100 µM and a TGI [44] greater than 100 µM. The TGI [45] was greater than 100 µM, the TGI [57] was greater than 100 µM and the TGI [46] was greater than 100 µM. The TGI [47] was 60.7 µM, the TGI [48] was greater than 100 µM and the TGI [49] was greater than 100 µM. The TGI [50] was greater than 100 µM, the TGI [58] was greater than 100 µM and the TGI [52] was greater than 100 µM. It also gave a TGI [53] greater than 100 µM and a TGI [54] greater than 100 µM.

`CCN(CC)CCn1c(=O)c2ccccc2n2c3c(=O)n(C)c(=O)n(C)c3nc12` gave a TGI [1] of 5.43 µM, a TGI [2] of 2.05 µM and a TGI [3] of 1.09 µM. The TGI [4] was 4.22 µM, the TGI [5] was 3.91 µM and the TGI [6] was 13.1 µM. It also gave a TGI [7] of 14.5 µM, a TGI [8] of 4.47 µM and a TGI [9] of 11.7 µM. For the same compound, the TGI [10] was 6.8 µM, the TGI [11] was 8.71 µM and the TGI [12] was 66.2 µM. The TGI [13] was 2.5 µM, the TGI [55] was 4.62 µM and the TGI [14] was 7.85 µM. The TGI [15] was 19.6 µM, the TGI [16] was 9.55 µM and the TGI [17] was 23.3 µM. For the same compound, the TGI [18] was 19.4 µM, the TGI [19] was 6.03 µM and the TGI [20] was 31.3 µM. For the same compound, the TGI [21] was 13 µM, the TGI [22] was 10.6 µM and the TGI [23] was 6.2 µM. The TGI [24] was 19.3 µM, the TGI [25] was 15.9 µM and the TGI [26] was 17.6 µM. It also gave a TGI [27] of 4.73 µM, a TGI [28] of 3.35 µM and a TGI [29] of 10.1 µM. It also gave a TGI [30] of 1.65 µM, a TGI [31] of 9 µM and a TGI [32] of 30.2 µM. The TGI [33] was 16.4 µM, the TGI [34] was 23.5 µM and the TGI [35] was 7.09 µM. The TGI [36] was 8.06 µM, the TGI [37] was 20.4 µM and the TGI [38] was 5.94 µM. The TGI [39] was 34.4 µM, the TGI [40] was 12.1 µM and the TGI [41] was 10.1 µM. The TGI [56] was 2.95 µM, the TGI [42] was 6.61 µM and the TGI [43] was 18.3 µM. It also gave a TGI [44] of 2.94 µM, a TGI [45] of 4.77 µM and a TGI [57] of 10.2 µM. For the same compound, the TGI [46] was 38.1 µM, the TGI [47] was 7.46 µM and the TGI [48] was 5.15 µM. It also gave a TGI [49] of 16.1 µM, a TGI [50] of 20.8 µM and a TGI [51] of 52.5 µM. The TGI [58] was 6.03 µM, the TGI [52] was 16.7 µM and the TGI [53] was 3.22 µM. The TGI [54] was 6.29 µM.
